# Assay results published in patent US20260115139A1, “Amino Acid-Containing Ionizable Lipids for the Delivery of Therapeutic Agents” (NanoVation Therapeutics Inc., priority 2022, published 2026).
# Test system: liver
# Experiment: In vivo delivery of luciferase mRNA LNPs, luminescence in liver
# Conditions: LNP 50/10/38.5/1.5 mol % ionizable lipid/DSPC/chol/PEG-DMG, N/P=6, luciferase mRNA 1 mg/kg intravenous, CD-1 mice, 4 hours post-injection
# Experimental: The mRNA dose was 1 mg/kg.
row,SMILES,luminescence intensity per mg liver compared with the MC3 benchmark (lipid 1)
1,"CCCCCCCCC(CCCCCC)C(=O)OCCCCCC(CCCCCOC(=O)CN(C)C(=O)C(CCCCCC)CCCCCCCC)OC(=O)CCCN(C)C (stereo not shown) [lipid 6, 6-((4-(Dimethylamino)butanoyl)oxy)-11-((N-(2-hexyldecanoyl)-N-methylglycyl)oxy)-undecyl 2-hexyldecanoate]",higher
2,"CCCCCCCCC(CCCCCC)C(=O)N(C)CC(=O)OCCCCCC1(CCCCCOC(=O)CN(C)C(=O)C(CCCCCC)CCCCCCCC)OCC(CCOC(=O)CCCN(C)C)O1 (stereo not shown) [lipid 17, (4-(2-((4-(dimethylamino)butanoyl)oxy)ethyl)-1,3-dioxolane-2,2-diyl)bis(pentane-5,1-diyl) bis(2-(2-hexyl-N-methyldecanamido)acetate)]",higher
3,"CCCCCCCCC(CCCCCC)C(=O)N(C)CC(=O)OCCCCCC(CCCCCOC(=O)CN(C)C(=O)C(CCCCCC)CCCCCCCC)OC(=O)CCCC(=O)OCCCN(C)C (stereo not shown) [lipid 19, 9,31-dihexyl-11,29-dimethyl-10,13,27,30-tetraoxo-14,26-dioxa-11,29-diazanonatriacon-tan-20-yl (3-(dimethylamino)propyl) glutarate]",higher
4,"CCCCCCCCC(CCCCCC)C(=O)OCCCCCC(CCCCCOC(=O)CN(C)C(=O)C(CCCCCC)CCCCCCCC)N(C)CCCO (stereo not shown) [lipid 23, 11-((N-(2-Hexyldecanoyl)-N-methylglycyl)oxy)-6-((3-hydroxypropyl)(methyl)amino)-undecyl 2-hexyldecanoate]",higher
5,"CCCCCCCCC(CCCCCC)C(=O)OCCCCCC(CCCCCOC(=O)CN(C)C(=O)C(CCCCCC)CCCCCCCC)N(C)CCO (stereo not shown) [lipid 24, 11-((N-(2-Hexyldecanoyl)-N-methylglycyl)oxy)-6-((2-hydroxyethyl)(methyl)amino)-undecyl 2-hexyldecanoate]",higher
6,"CCCCCCCCC(CCCCCC)C(=O)OCCCCCC(CCCCCOC(=O)CN(C)C(=O)CC(CCCCCCC)CCCCCCC)N(C)CCCCO (stereo not shown) [lipid 25, 11-((N-(3-Heptyldecanoyl)-N-methylglycyl)oxy)-6-((4-hydroxybutyl)(methyl)amino)-undecyl 2-hexyldecanoate]",higher
7,"CCCCCCCCC(CCCCCC)CC(=O)N(C)CC(=O)OCCCCCC(CCCCCOC(=O)C(CCCCCC)CCCCCCCC)N(C)CCCCO (stereo not shown) [lipid 27, 11-((N-(3-Hexylundecanoyl)-N-methylglycyl)oxy)-6-((4-hydroxybutyl)(methyl)-amino)-undecyl 2-hexyldecanoate]",higher
8,"CCCCCCCCCC(=O)OCCCCCC(CCCCCOC(=O)CN(C)C(=O)CC(CCCCCC)CCCCCCCC)N(C)CCCCO (stereo not shown) [lipid 33, 11-((N-(3-Hexylundecanoyl)-N-methylglycyl)oxy)-6-((4-hydroxybutyl)(methyl)-amino)-undecyl decanoate]",higher
9,"CCCCCCCCC(CCCCCC)C(=O)OCCCCCC(CCCCCO)N(C)CCCCOC(=O)CN(C)C(=O)C(CCCCCC)CCCCCCCC (stereo not shown) [lipid 36, 6-((4-((N-(2-Hexyldecanoyl)-N-methylglycyl)oxy)butyl)(methyl)amino)-11-hydroxy-undecyl 2-hexyldecanoate]",higher

# Test system: not given
# Experiment: not given
# Conditions: delivery of siRNA; background statement; cited from earlier work
row,SMILES,siRNA required compared with KC2
1,CCCCC/C=C\C/C=C\CCCCCCCCC(CCCCCCCC/C=C\C/C=C\CCCCC)OC(=O)CCCN(C)C [lipid 1],about 3 times less
